Reference: patent US20180064807A1, “NOVEL LIPIDS AND COMPOSITIONS FOR THE DELIVERY OF THERAPEUTICS” (Arbutus Biopharma Corporation, priority 2008, published 2018)

Columns and labels:
[1] = Determination of pKa of formulated lipids (TNS fluorescence); format: physicochemical; conditions: probe 2-(p-toluidino)-6-naphthalenesulfonic acid (TNS), 1 µM final, vesicles of cationic lipid/DSPC/CH/PEG-c-DOMG 40:10:40:10, pH 2 to 11
Method: The pKa's of the different ionisable cationic lipids were determined essentially as described (Eastman et al 1992 Biochemistry 31:4262-4268) using the fluorescent probe 2-(p-toluidino)-6-naphthalenesulfonic acid (TNS), which is non-fluorescent in water but becomes appreciably fluorescent when bound to membranes. Vesicles composed of cationic lipid/DSPC/CH/PEG-c-DOMG (40:10:40:10 mole ratio) were diluted to 0.1 mM in buffers (130 mM NaCl, 10 mM CH3COONH4, 10 mM MES, 10 mM HEPES) of various pH's, ranging from 2 to 11. An aliquot of the TNS aqueous solution (1 μM final) was added to the diluted vesicles and after a 30 second equilibration period the fluorescent of the TNS-containing solution was measured at excitation and emission wavelengths of 321 nm and 445 nm, respectively. The pKa of the cationic lipid-containing vesicles was determined by plotting the measured fluorescence against the pH of the solutions and fitting the data to a Sigmodial curve using the commercial graphing program IgorPro.

Factor VII [2] = assay: In vivo determination of efficacy of novel lipid formulations (FVII knockdown, ED50); set-up: species or system C57Bl/6 mice; conditions: dose resulting in a 50% reduction in plasma FVII levels compared to control animals; FVII siRNA in cationic lipid/DSPC/cholesterol/PEG-lipid 40/10/40/10; intravenous, 24 h
Method: Cationic lipid containing particles were made using the preformed vesicle method. Cationic lipid, DSPC, cholesterol and PEG-lipid were solubilised in ethanol at a molar ratio of 40/10/40/10, respectively. The lipid mixture was added to an aqueous buffer (50 mM citrate, pH 4) with mixing to a final ethanol and lipid concentration of 30% (vol/vol) and 6.1 mg/mL respectively and allowed to equilibrate at room temperature for 2 min before extrusion. The hydrated lipids were extruded through two stacked 80 nm pore-sized filters (Nuclepore) at 22° C. using a Lipex Extruder (Northern Lipids, Vancouver, BC) until a vesicle diameter of 70-90 nm, as determined by Nicomp analysis, was obtained. This generally required 1-3 passes.
The FVII siRNA (solubilised in a 50 mM citrate, pH 4 aqueous solution containing 30% ethanol) was added to the vesicles, pre-equilibrated to 35° C., at a rate of […] with mixing. After a final target siRNA/lipid ratio of 0.06 (wt/wt) was achieved, the mixture was incubated for a further 30 min at 35° C. to allow vesicle re-organization and encapsulation of the FVII siRNA. The ethanol was then removed and the external buffer replaced with PBS (155 mM NaCl, 3 mM Na2HPO4, 1 mM KH2PO4, pH 7.5) by either dialysis or tangential flow diafiltration. The final encapsulated siRNA-to-lipid ratio was determined after removal of unencapsulated siRNA using size-exclusion spin columns or ion exchange spin columns.
Test formulations were initially assessed for their FVII knockdown in female 7-9 week old, 15-25 g, female C57Bl/6 mice at 0.1, 0.3, 1.0 and 5.0 mg/kg with 3 mice per treatment group. All studies included animals receiving either phosphate-buffered saline (PBS, Control group) or a benchmark formulation. Formulations were diluted to the appropriate concentration in PBS immediately prior to testing. Mice were weighed and the appropriate dosing volumes calculated (10 μl/g body weight). Test and benchmark formulations as well as PBS (for Control animals) were administered intravenously via the lateral tail vein. Animals were anesthetised 24 h later with an intraperitoneal injection of Ketamine/Xylazine and 500-700 μl of blood was collected by cardiac puncture into serum separator tubes (BD Microtainer). Blood was centrifuged at 2,000×g for 10 min at 15° C. and serum was collected and stored at −70° C. until analysis. Serum samples were thawed at 37° C. for 30 min, diluted in PBS and aliquoted into 96-well assay plates. Factor VII levels were assessed using a chromogenic assay (Biophen FVII kit, Hyphen BioMed) according to manufacturer's instructions and absorbance measured in microplate reader equipped with a 405 nm wavelength filter. Plasma FVII levels were quantified and ED50s (dose resulting in a 50% reduction in plasma FVII levels compared to control animals) calculated using a standard curve generated from a pooled sample of serum from Control animals. Those formulations of interest showing high levels of FVII knockdown (ED50<<0.1 mg/kg) were re-tested in independent studies at a lower dose range to confirm potency and establish ED50.

Factor VII [3] = assay: In vivo evaluation of FVII siRNA 1661 using cyclic cationic lipid based formulations (FVII assay); set-up: species or system rodent; conditions: lipid particles with FVII siRNA 1661
Method: C57BL/6 mice (Charles River Labs, MA) and Sprague-Dawley rats (Charles River Labs, MA) received either saline or siRNA in desired formulations via tail vein injection at a volume of 0.01 mL/g. At various time points post-administration, animals were anesthesized by isofluorane inhalation and blood was collected into serum separator tubes by retro orbital bleed. Serum levels of Factor VII protein were determined in samples using a chromogenic assay (Coaset Factor VII, DiaPharma Group, OH or Biophen FVII, Aniara Corporation, OH) according to manufacturer protocols. A standard curve was generated using serum collected from saline treated animals. In experiments where liver mRNA levels were assessed, at various time points post-administration, animals were sacrificed and livers were harvested and snap frozen in liquid nitrogen. Frozen liver tissue was ground into powder. Tissue lysates were prepared and liver mRNA levels of Factor VII and apoB were determined using a branched DNA assay (QuantiGene Assay, Panomics, Calif.).
The cyclic cationic lipids 506, 512 and 519-based formulations as described below were prepared, characterized and evaluated in vivo by FVII assay.

| Structure (SMILES) | pKa [1] | ED50 (Factor VII [2]) [mg/kg] | knockdown of FVII protein levels in vivo (Factor VII [3]) |
| --- | --- | --- | --- |
| CCCCC/C=C\C/C=C\CCCCCCCCC1(CCCCCCCC/C=C\C/C=C\CCCCC)O[C@H]2CCN(C)C[C@H]2O1 [ALNY-105] | 5.6 | 1.5 |  |
| CCCCC/C=C\C/C=C\CCCCCCCCC1(CCCCCCCC/C=C\C/C=C\CCCCC)O[C@H]2COC(CN(C)C)[C@H]2O1 (stereo partly drawn) [ALNY-144] |  | 0.60 |  |
| CCCCC/C=C\C/C=C\CCCCCCCCC1(CCCCCCCC/C=C\C/C=C\CCCCC)O[C@H]2CCN(C)CC[C@H]2O1 [ALNY-106] | 6.85 | 0.3 |  |
| CCCCC/C=C\C/C=C\CCCCCCCCC1(CCCCCCCC/C=C\C/C=C\CCCCC)O[C@H]2C[C@@H](N(C)C)C[C@H]2O1 [ALNY-101] | 6.43 | 0.1 |  |
| CCCCC/C=C\C/C=C\CCCCCCCCC1(CCCCCCCC/C=C\C/C=C\CCCCC)O[C@H]2C[C@@H](N(C)C)CC[C@H]2O1 [ALNY-102] | 7.3 | 2.0 |  |
| CCCCC/C=C\C/C=C\CCCCCCCCC1(CCCCCCCC/C=C\C/C=C\CCCCC)O[C@H]2C[C@H](N(C)C)CC[C@H]2O1 [ALNY-103] | 6.98 | 2.5 |  |
| CCCCC/C=C\C/C=C\CCCCCCCCC1(CCCCCCCC/C=C\C/C=C\CCCCC)O[C@H]2CC[C@H](CN(C)C)C[C@H]2O1 [ALNY-122] |  | 0.55 |  |
| CCCCC/C=C\C/C=C\CCCCCCCCC1(CCCCCCCC/C=C\C/C=C\CCCCC)O[C@H]2C[C@H](N(C)C)C[C@H]2O1 [ALNY-100] | 6.4 | 0.3 |  |
| CCCCC/C=C\C/C=C\CCCCCCCCC(CCCCCCCC/C=C\C/C=C\CCCCC)=NNCCN(C)C [ALNY-175] |  | 2.7 |  |
| CCCCC/C=C\C/C=C\CCCCCCCCC1(CCCCCCCC/C=C\C/C=C\CCCCC)O[C@H]2C[C@H](CN(C)C)C[C@H]2O1 [ALNY-116] |  | 1.0 |  |
| CCCCC/C=C\C/C=C\CCCCCCCCC1(CCCCCCCC/C=C\C/C=C\CCCCC)O[C@@H]2CC[C@H](N(C)C)C[C@H]2O1 [ALNY-169] |  | 2.60 |  |
| CCCCC/C=C\C/C=C\CCCCCCCCC1(CCCCCCCC/C=C\C/C=C\CCCCC)O[C@H]2C[C@@H](CN(C)C)C[C@H]2O1 [ALNY-115] |  | 1.0 |  |
| CCCCC/C=C\C/C=C\CCCCCCCC1OC2(CCC(N(C)C)CC2)OC1CCCCCCC/C=C\C/C=C\CCCCC (stereo not drawn) [ALNY-158] |  | 1.40 |  |
| CCCCC/C=C\C/C=C\CCCCCCCC1OC2(CCN(C)CC2)OC1CCCCCCC/C=C\C/C=C\CCCCC (stereo not drawn) [ALNY-156] | 6.08 |  |  |
| CCCCC/C=C\C/C=C\CCCCCCCCC1(CCCCCCCC/C=C\CCCCCCCC)O[C@H]2C[C@H](N(C)C)C[C@H]2O1 (stereo partly drawn) [ALNY-107] | 6.63 | 0.25 |  |
| CCCCC/C=C\C/C=C\CCCCCCCCC1(CCCCCCCC/C=C\C/C=C\CCCCC)O[C@H]2CN(C)C[C@H]2O1 [ALNY-104] | 5.65 | 2.5 |  |
| CCCCC/C=C\C/C=C\CCCCCCCCO[C@H]1C[C@H](N(C)C)C[C@H]1OCCCCCCCC/C=C\C/C=C\CCCCC [ALNY-117] |  | >5.0 |  |
| CCCCC/C=C\C/C=C\CCCCCCCCC1(CCCCCCCC/C=C\C/C=C\CCCCC)O[C@H]2C[C@@H](N(C)C)C[C@H]2O1 [Compound 519] |  |  | almost complete knockdown |

The next lines start with results.

| pKa [1] | Structure (SMILES) | ED50 (Factor VII [2]) [mg/kg] | knockdown of FVII protein levels in vivo (Factor VII [3]) |
| --- | --- | --- | --- |
| 6.75 | CCCCC/C=C\C/C=C\CCCCCCCCC1(CCCCCCCCCCCC)O[C@H]2C[C@H](N(C)C)C[C@H]2O1 (stereo partly drawn) [ALNY-109] | 2.0 |  |
| 7.21 | CCCCC/C=C\C/C=C\CCCCCCCCC(CCCCCCCC/C=C\C/C=C\CCCCC)NC(=O)OCCCN(C)C [ALNY-192] | 2.1 |  |
| 6.6 | CCCCC/C=C\C/C=C\CCCCCCCC1OC(C)(CCN(C)C)OC1CCCCCCC/C=C\C/C=C\CCCCC (stereo not drawn) [ALNY-152] | 0.15 |  |
| 6.5 | CCCCC/C=C\C/C=C\CCCCCCCCC1(CCCCCCCCCC)O[C@H]2C[C@H](N(C)C)C[C@H]2O1 (stereo partly drawn) [ALNY-110] | 2.0 |  |
| 4.95 | CCCCC/C=C\C/C=C\CCCCCCCCC1(CCCCCCCC/C=C\C/C=C\CCCCC)OCC(CCN(C)Cc2cccnc2)O1 (stereo not drawn) [ALNY-140] | >5.0 |  |
| 5.18 | CCCCC/C=C\C/C=C\CCCCCCCCC(CCCCCCCC/C=C\C/C=C\CCCCC)SSCCN(C)C [ALNY-160] | 2.00 |  |
| 6.52 | CCCCC/C=C\C/C=C\CCCCCCCCC(CCCCCCCC/C=C\C/C=C\CCCCC)NC(=O)OCCN(C)C [ALNY-202] | 0.12 |  |
| 6.6 | CCCCC/C=C\C/C=C\CCCCCCCCC1(CCCCCCCC/C=C\C/C=C\CCCCC)O[C@H]2CC[C@@H](CN(C)C)C[C@H]2O1 [ALNY-121] | 0.5 |  |
| 6.53 | CCCCC/C=C\C/C=C\CCCCCCCCC1(CCCCCCCC/C=C\C/C=C\CCCCC)OCC2(CCN(C)CC2)O1 [ALNY-148] | 0.3 |  |
| 6.49 | CCCCC/C=C\C/C=C\CCCCCCCCC(CCCCCCCC/C=C\C/C=C\CCCCC)OC(=O)NCCN(C)C [ALNY-190] | 0.47 |  |
| 7.57 | CCCCC/C=C\C/C=C\CCCCCCCCC(CCCCCCCC/C=C\C/C=C\CCCCC)CNC(=O)OCCCN(C)C [ALNY-200] | >5.00 |  |
| 5.81 | CCCCC/C=C\C/C=C\CCCCCCCCC(CCCCCCCC/C=C\C/C=C\CCCCC)ON=C(C)CCN(C)C [ALNY-149] | 0.1 |  |
| 6.62 | CCCCC/C=C\C/C=C\CCCCCCCCC(CCCCCCCC/C=C\C/C=C\CCCCC)CN(C)CCN(C)C [ALNY-141] | 0.14 |  |
| 7.07 | CCCCC/C=C\C/C=C\CCCCCCCCC(CCCCCCCC/C=C\C/C=C\CCCCC)CNC(=O)OCCN(C)C [ALNY-203] | 5.0 |  |
| 5.5 | CCCCC/C=C\C/C=C\CCCCCCCCC1(CCCCCCCC/C=C\C/C=C\CCCCC)O[C@H]2[C@@H](OC)OC(CN(C)C)[C@H]2O1 (stereo partly drawn) [ALNY-151] | >5.00 |  |
| 6.55 | CCCCC/C=C\C/C=C\CCCCCCCCC1(CCCCCCCCCCCCCCCCCC)O[C@H]2C[C@H](N(C)C)C[C@H]2O1 (stereo partly drawn) [ALNY-108] | 0.75 |  |
| 8.02 | CCCCC/C=C\C/C=C\CCCCCCCCC(CCCCCCCC/C=C\C/C=C\CCCCC)CNC(=O)CCN(C)C [ALNY-201, 3-(dimethylamino)-N-((11Z,14Z)-2-((9Z,12Z)-octadeca-9,12-dienyl)icosa-11,14-dienyl)propanamide] | >5.0 |  |
